The kinase profiling compilation of Christmann-Franck et al. (2016)

Experiments:
Test in all cases: KINOMEscan competition binding
Conditions in all cases: compound 10.0 µM
MAP4K1 (human) = MAP4K1 (human) (UniProt Q92918)
PIK3C2B (human) = PIK3C2B (human) (UniProt O00750)
MYO3B (human) = MYO3B (human) (UniProt Q8WXR4)
STK25 (human) = STK25 (human) (UniProt O00506)
CSNK1G1 (human) = CSNK1G1 (human) (UniProt Q9HCP0)
EPHA8 (human) = EPHA8 (human) (UniProt P29322)
PTK6 (human) = PTK6 (human) (UniProt Q13882)
TXK (human) = TXK (human) (UniProt P42681)
PAK3 (human) = PAK3 (human) (UniProt O75914)
[1] = test system: FLT3 (human), P36888 [D835H]
SLK (human) = SLK (human) (UniProt Q9H2G2)
Sequence of SLK (human) (Q9H2G2 whole entry, looked up): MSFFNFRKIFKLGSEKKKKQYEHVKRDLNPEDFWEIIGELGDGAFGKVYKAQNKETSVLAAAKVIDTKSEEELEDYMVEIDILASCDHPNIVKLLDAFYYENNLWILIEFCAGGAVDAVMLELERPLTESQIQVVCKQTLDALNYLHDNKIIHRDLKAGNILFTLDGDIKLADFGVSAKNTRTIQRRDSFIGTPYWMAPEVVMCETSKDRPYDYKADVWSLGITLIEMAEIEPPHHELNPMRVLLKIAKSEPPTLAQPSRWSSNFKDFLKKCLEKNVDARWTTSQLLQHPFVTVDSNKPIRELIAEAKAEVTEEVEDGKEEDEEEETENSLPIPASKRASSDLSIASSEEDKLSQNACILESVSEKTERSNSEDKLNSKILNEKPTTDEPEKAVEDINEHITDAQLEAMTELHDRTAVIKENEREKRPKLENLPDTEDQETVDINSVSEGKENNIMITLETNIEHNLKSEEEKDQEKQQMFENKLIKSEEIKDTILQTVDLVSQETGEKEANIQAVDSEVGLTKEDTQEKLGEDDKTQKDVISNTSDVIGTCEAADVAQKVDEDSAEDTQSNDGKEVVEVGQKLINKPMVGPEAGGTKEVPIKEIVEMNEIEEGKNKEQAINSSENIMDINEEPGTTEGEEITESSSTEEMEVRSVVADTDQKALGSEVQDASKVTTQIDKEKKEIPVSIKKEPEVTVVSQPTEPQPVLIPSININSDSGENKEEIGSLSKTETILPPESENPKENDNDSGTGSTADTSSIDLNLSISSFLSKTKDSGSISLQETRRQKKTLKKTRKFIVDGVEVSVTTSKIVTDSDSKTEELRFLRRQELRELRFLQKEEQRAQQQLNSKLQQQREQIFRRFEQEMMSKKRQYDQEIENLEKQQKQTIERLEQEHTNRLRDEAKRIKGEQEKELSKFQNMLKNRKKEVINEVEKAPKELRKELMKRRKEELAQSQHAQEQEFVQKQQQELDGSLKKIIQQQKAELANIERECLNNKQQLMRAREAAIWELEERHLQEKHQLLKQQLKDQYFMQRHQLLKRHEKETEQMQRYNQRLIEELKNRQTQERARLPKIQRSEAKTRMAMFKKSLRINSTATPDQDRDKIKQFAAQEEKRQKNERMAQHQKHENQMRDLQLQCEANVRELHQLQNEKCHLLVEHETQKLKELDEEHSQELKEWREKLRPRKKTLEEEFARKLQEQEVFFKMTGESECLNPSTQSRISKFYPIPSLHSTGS

CDK2 (human) = CDK2 (human) (UniProt P24941)
MAP2K3 (human) = MAP2K3 (human) (UniProt P46734)
MYLK3 (human) = MYLK3 (human) (UniProt Q32MK0)
TNK2 (human) = TNK2 (human) (UniProt Q07912)
CHUK (human) = CHUK (human) (UniProt O15111)
Sequence of CHUK (human) (O15111 whole entry, looked up): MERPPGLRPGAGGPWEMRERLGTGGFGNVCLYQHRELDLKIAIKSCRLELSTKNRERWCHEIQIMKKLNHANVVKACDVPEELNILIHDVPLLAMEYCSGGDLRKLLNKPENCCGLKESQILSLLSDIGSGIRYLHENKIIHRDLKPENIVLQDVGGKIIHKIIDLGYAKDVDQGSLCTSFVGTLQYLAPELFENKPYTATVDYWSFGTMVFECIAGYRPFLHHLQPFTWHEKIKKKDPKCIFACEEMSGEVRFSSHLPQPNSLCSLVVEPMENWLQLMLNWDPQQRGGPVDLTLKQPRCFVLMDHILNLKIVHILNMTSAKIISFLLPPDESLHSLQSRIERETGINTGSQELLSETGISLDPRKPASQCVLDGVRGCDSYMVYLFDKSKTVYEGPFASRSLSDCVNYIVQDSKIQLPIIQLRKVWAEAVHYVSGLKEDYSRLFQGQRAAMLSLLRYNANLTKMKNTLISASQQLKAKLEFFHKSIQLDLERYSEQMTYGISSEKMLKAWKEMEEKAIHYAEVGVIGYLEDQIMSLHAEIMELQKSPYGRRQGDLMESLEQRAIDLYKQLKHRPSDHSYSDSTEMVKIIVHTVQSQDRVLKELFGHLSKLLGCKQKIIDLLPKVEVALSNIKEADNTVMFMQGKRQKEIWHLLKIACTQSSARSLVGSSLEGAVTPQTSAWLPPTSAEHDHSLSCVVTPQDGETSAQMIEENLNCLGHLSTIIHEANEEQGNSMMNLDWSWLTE

PHKG2 (human) = PHKG2 (human) (UniProt P15735)
DAPK1 (human) = DAPK1 (human) (UniProt P53355)
MYO3A (human) = MYO3A (human) (UniProt Q8NEV4)
Sequence of MYO3A (human) (Q8NEV4 whole entry, looked up): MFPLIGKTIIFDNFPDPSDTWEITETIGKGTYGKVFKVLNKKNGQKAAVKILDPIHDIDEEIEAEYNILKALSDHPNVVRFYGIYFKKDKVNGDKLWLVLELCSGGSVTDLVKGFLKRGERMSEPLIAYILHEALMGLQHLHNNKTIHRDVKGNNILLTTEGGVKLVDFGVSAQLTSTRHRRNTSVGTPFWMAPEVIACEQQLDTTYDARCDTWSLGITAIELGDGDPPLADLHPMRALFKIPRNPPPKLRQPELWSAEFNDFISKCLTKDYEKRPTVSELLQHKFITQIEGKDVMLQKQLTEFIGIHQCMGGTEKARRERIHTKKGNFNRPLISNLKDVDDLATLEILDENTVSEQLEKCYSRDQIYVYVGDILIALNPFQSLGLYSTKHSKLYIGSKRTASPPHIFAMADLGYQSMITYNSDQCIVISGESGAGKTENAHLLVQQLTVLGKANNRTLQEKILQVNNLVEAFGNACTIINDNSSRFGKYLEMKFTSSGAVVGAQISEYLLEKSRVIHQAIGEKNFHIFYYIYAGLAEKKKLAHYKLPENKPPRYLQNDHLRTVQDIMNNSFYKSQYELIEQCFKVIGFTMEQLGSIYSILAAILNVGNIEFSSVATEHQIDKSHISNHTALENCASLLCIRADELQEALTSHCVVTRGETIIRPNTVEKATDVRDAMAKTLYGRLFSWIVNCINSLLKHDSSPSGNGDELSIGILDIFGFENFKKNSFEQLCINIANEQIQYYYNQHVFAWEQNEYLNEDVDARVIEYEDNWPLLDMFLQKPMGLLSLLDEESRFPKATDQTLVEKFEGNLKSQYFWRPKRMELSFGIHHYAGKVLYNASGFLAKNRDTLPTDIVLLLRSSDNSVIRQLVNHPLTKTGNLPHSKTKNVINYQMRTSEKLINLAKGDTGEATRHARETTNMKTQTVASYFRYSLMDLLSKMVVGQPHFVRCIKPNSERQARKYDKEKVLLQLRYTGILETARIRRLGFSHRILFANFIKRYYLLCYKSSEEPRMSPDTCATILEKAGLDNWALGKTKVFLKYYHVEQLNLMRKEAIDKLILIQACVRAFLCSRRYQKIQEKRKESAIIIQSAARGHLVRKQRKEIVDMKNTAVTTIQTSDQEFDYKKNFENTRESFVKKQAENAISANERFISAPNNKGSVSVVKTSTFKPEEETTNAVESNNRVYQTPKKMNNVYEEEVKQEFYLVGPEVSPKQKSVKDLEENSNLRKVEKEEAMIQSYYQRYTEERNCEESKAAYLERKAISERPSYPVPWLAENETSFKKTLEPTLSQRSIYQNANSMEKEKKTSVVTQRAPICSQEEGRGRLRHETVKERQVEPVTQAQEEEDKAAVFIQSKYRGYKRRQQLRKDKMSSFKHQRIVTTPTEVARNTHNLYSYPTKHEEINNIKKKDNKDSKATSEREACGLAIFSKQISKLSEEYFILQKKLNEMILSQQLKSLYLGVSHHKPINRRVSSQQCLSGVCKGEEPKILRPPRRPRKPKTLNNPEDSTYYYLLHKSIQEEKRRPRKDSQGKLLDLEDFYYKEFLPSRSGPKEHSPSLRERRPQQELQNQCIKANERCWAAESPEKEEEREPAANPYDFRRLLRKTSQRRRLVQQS

PRKX (human) = PRKX (human) (UniProt P51817)
CLK4 (human) = CLK4 (human) (UniProt Q9HAZ1)
Sequence of CLK4 (human) (Q9HAZ1 whole entry, looked up): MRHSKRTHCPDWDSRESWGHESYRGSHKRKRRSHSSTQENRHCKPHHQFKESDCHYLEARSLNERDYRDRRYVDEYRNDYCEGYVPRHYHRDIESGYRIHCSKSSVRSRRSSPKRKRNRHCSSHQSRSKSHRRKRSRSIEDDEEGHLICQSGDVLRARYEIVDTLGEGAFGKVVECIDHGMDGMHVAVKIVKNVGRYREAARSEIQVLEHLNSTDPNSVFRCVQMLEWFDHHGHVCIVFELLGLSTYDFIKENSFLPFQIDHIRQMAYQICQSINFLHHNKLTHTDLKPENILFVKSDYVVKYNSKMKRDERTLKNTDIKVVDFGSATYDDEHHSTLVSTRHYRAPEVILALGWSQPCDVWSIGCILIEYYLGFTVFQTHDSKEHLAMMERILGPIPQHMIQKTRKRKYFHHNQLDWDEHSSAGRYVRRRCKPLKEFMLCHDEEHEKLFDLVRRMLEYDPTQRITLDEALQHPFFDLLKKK

WEE1 (human) = WEE1 (human) (UniProt P30291)
Sequence of WEE1 (human) (P30291 whole entry, looked up): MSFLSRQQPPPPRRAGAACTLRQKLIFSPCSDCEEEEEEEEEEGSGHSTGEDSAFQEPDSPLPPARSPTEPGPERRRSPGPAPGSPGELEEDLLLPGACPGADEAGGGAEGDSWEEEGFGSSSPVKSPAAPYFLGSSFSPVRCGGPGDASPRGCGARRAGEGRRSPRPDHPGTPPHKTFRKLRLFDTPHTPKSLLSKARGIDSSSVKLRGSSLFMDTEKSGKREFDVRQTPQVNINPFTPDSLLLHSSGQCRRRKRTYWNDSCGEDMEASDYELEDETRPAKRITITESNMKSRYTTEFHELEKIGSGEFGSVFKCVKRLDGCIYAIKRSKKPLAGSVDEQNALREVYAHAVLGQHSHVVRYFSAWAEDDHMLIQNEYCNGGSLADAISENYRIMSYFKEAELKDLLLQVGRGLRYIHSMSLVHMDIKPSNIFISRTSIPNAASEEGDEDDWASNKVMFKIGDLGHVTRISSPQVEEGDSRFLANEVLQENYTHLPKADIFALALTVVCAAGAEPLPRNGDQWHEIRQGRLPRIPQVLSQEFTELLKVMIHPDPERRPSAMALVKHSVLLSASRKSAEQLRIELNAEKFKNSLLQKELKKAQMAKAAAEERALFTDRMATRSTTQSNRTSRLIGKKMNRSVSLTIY

CAMK2B (human) = CAMK2B (human) (UniProt Q13554)
PRKACA (human) = PRKACA (human) (UniProt P17612)
LATS1 (human) = LATS1 (human) (UniProt O95835)
TTK (human) = TTK (human) (UniProt P33981)
ANKK1 (human) = ANKK1 (human) (UniProt Q8NFD2)
INSR (human) = INSR (human) (UniProt P06213)
CDK3 (human) = CDK3 (human) (UniProt Q00526)
Sequence of CDK3 (human) (Q00526 whole entry, looked up): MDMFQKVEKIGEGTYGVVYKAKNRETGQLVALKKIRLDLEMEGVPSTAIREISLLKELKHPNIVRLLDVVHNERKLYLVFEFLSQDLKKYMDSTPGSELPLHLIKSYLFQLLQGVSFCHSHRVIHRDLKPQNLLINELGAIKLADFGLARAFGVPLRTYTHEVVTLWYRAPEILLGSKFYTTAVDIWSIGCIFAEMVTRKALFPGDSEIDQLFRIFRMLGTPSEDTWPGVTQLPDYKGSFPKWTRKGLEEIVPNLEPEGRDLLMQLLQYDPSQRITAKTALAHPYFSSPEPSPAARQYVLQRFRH

[2] = target: TYK2 JH1 catalytic (human) (UniProt P29597)
MAP4K4 (human) = MAP4K4 (human) (UniProt O95819)
RPS6KA6 KD1 (human) = RPS6KA6 KD1 (human) (UniProt Q9UK32)
NEK1 (human) = NEK1 (human) (UniProt Q96PY6)
[3] = test system: RET (human), P07949 [M918T]
MERTK (human) = MERTK (human) (UniProt Q12866)

kinase still bound, per cent of control (MAP4K1 (human))	kinase still bound, per cent of control (MYO3B (human))	kinase still bound, per cent of control (STK25 (human))	kinase still bound, per cent of control (CSNK1G1 (human))	kinase still bound, per cent of control (EPHA8 (human))	kinase still bound, per cent of control (PTK6 (human))	kinase still bound, per cent of control (TXK (human))	kinase still bound, per cent of control (PAK3 (human))	kinase still bound, per cent of control [1]	kinase still bound, per cent of control (SLK (human))	kinase still bound, per cent of control (CDK2 (human))	kinase still bound, per cent of control (MAP2K3 (human))	kinase still bound, per cent of control (MYLK3 (human))	kinase still bound, per cent of control (TNK2 (human))	kinase still bound, per cent of control (PHKG2 (human))	kinase still bound, per cent of control (DAPK1 (human))	kinase still bound, per cent of control (MYO3A (human))	kinase still bound, per cent of control (PRKX (human))	kinase still bound, per cent of control (CLK4 (human))	kinase still bound, per cent of control (WEE1 (human))	SMILES	further results
7.9%	100%	100%	16%	100%	25%	33%	1%	0.65%	0%	100%	10%	100%	1%	100%	100%	100%	100%	0.35%	100%	CNC(=O)c1ccc(Nc2cc(Nc3ccccc3S(=O)(=O)C(C)C)c3cc[nH]c3n2)nc1	kinase still bound, per cent of control (PIK3C2B (human)): 100%; kinase still bound, per cent of control (CHUK (human)): 100%; kinase still bound, per cent of control (CAMK2B (human)): 100%; kinase still bound, per cent of control (PRKACA (human)): 100%; kinase still bound, per cent of control (LATS1 (human)): 100%; kinase still bound, per cent of control (TTK (human)): 4.6%; kinase still bound, per cent of control (ANKK1 (human)): 100%; kinase still bound, per cent of control (INSR (human)): 0.4%; kinase still bound, per cent of control (CDK3 (human)): 100%; kinase still bound, per cent of control [2]: 0.25%; kinase still bound, per cent of control (MAP4K4 (human)): 31%; kinase still bound, per cent of control (RPS6KA6 KD1 (human)): 29%; kinase still bound, per cent of control (NEK1 (human)): 100%; kinase still bound, per cent of control [3]: 1.4%; kinase still bound, per cent of control (MERTK (human)): 0.25%
16%	100%	100%	100%	100%	100%	16%	100%	16%	9.8%	100%	100%	100%	1.7%	100%	100%	100%	100%	100%	100%	C=CC(=O)Nc1ccc(CN(C(=O)Nc2c(Cl)c(OC)cc(OC)c2Cl)c2cc(Nc3ccc(N4CCN(C)CC4)cc3)ncn2)cc1	kinase still bound, per cent of control (PIK3C2B (human)): 100%; kinase still bound, per cent of control (CHUK (human)): 100%; kinase still bound, per cent of control (CAMK2B (human)): 100%; kinase still bound, per cent of control (PRKACA (human)): 100%; kinase still bound, per cent of control (LATS1 (human)): 100%; kinase still bound, per cent of control (TTK (human)): 100%; kinase still bound, per cent of control (ANKK1 (human)): 100%; kinase still bound, per cent of control (INSR (human)): 24%; kinase still bound, per cent of control (CDK3 (human)): 100%; kinase still bound, per cent of control [2]: 12%; kinase still bound, per cent of control (MAP4K4 (human)): 100%; kinase still bound, per cent of control (RPS6KA6 KD1 (human)): 100%; kinase still bound, per cent of control (NEK1 (human)): 100%; kinase still bound, per cent of control [3]: 0.4%; kinase still bound, per cent of control (MERTK (human)): 100%
100%	100%	9.4%	100%	100%	100%	100%	100%	100%	100%	100%	100%	100%	100%	100%	100%	100%	100%	100%	100%	CCN(CC)CCCCNc1ncc2cc(-c3cc(OC)cc(OC)c3)c(NC(=O)NC(C)(C)C)nc2n1	kinase still bound, per cent of control (CAMK2B (human)): 100%; kinase still bound, per cent of control (PRKACA (human)): 100%; kinase still bound, per cent of control (LATS1 (human)): 100%; kinase still bound, per cent of control (TTK (human)): 100%; kinase still bound, per cent of control (ANKK1 (human)): 100%; kinase still bound, per cent of control (CDK3 (human)): 100%; kinase still bound, per cent of control [2]: 100%; kinase still bound, per cent of control (MAP4K4 (human)): 100%; kinase still bound, per cent of control (RPS6KA6 KD1 (human)): 100%; kinase still bound, per cent of control (NEK1 (human)): 100%; kinase still bound, per cent of control [3]: 100%; kinase still bound, per cent of control (MERTK (human)): 100%

SMILES	kinase still bound, per cent of control (MAP4K1 (human))	kinase still bound, per cent of control (MYO3B (human))	kinase still bound, per cent of control (STK25 (human))	kinase still bound, per cent of control (CSNK1G1 (human))	kinase still bound, per cent of control (EPHA8 (human))	kinase still bound, per cent of control (PTK6 (human))	kinase still bound, per cent of control (TXK (human))	kinase still bound, per cent of control (PAK3 (human))	kinase still bound, per cent of control [1]	kinase still bound, per cent of control (SLK (human))	kinase still bound, per cent of control (CDK2 (human))	kinase still bound, per cent of control (MAP2K3 (human))	kinase still bound, per cent of control (MYLK3 (human))	kinase still bound, per cent of control (TNK2 (human))	kinase still bound, per cent of control (PHKG2 (human))	kinase still bound, per cent of control (DAPK1 (human))	kinase still bound, per cent of control (MYO3A (human))	kinase still bound, per cent of control (PRKX (human))	kinase still bound, per cent of control (CLK4 (human))	kinase still bound, per cent of control (WEE1 (human))	further results
Cc1n[nH]c2ccc(-c3cncc(OC[C@@H](N)Cc4c[nH]c5ccccc45)c3)cc12	23%	100%	100%	3.7%	100%	100%	100%	100%	5%	100%	100%	7.1%	2.8%	100%	23%	2.2%	100%	12%	2.6%	100%	kinase still bound, per cent of control (PIK3C2B (human)): 100%; kinase still bound, per cent of control (CHUK (human)): 1%; kinase still bound, per cent of control (PRKACA (human)): 0.85%; kinase still bound, per cent of control (LATS1 (human)): 3.8%; kinase still bound, per cent of control (TTK (human)): 100%; kinase still bound, per cent of control (ANKK1 (human)): 100%; kinase still bound, per cent of control (INSR (human)): 100%; kinase still bound, per cent of control (CDK3 (human)): 22%; kinase still bound, per cent of control [2]: 100%; kinase still bound, per cent of control (MAP4K4 (human)): 2.2%; kinase still bound, per cent of control (RPS6KA6 KD1 (human)): 100%; kinase still bound, per cent of control (NEK1 (human)): 100%; kinase still bound, per cent of control [3]: 100%; kinase still bound, per cent of control (MERTK (human)): 33%
